From US9326990B2, “Heart failure suppressing agent” (THE UNIVERSITY OF TOKYO, priority 2011, dated 2016)

Tests used:
Assay type in all cases: in vivo
[1] = tested on: angiotensin II-continuous infusion SD rat; assay: Angiotensin II-continuous infusion rat model of cardiac fibrosis and cardiomegaly
Experimental: Angiotensin II was continuously infused to an 8 week-old male SD rat, and the action of luteolin glycoside (luteolin-7-O-glucoside was used) to cardiac fibrosis and cardiomegaly in the acceleration state of oxidative stress was investigated. For the control group, rats were normally raised. For the angiotensin II group (Ang II group), an angiotensin II-continuous infusion pump was implanted subcutaneously in the rat, and continuous infusion was performed for 7 days. For the luteolin glycoside simultaneous-administration group (Ang II+LMG group), a luteolin glycoside-blended feed (3.6 g of luteolin monoglycoside (LMG) was blended per 10 kg of feed) was fed for 3 weeks, then an angiotensin II-continuous infusion pump was implanted subcutaneously, and continuous infusion was performed for 7 days.
(§1) The blood pressure was measured at the seventh day, the degree of the ventricular wall thickness was evaluated with echocardiographic examination, then the heart was removed, and the weights of the heart and the ventricle were measured. The reactive oxygen was evaluated with hydroethidine staining, and the degree of fibrosis was evaluated with Masson's trichrome staining. Gene expressions of the fibrosis marker, and the heart failure marker in the ventricular tissue were evaluated with real time PCR.

[2] = tested on: TGF-β1 (transforming growth factor) gene expression; assay: Real time PCR of fibrosis marker gene TGF-β1 in ventricular tissue, angiotensin II rat model; settings: corrected with GAPDH, Ang II + luteolin glycoside, FIG. 6
Experimental: (§2) Angiotensin II was continuously infused to an 8 week-old male SD rat, and the action of luteolin glycoside (luteolin-7-O-glucoside was used) to cardiac fibrosis and cardiomegaly in the acceleration state of oxidative stress was investigated. For the control group, rats were normally raised. For the angiotensin II group (Ang II group), an angiotensin II-continuous infusion pump was implanted subcutaneously in the rat, and continuous infusion was performed for 7 days. […]
as §1
(§3) RNA was extracted from the ventricular tissue, and expression amounts of various genes were evaluated with real time PCR.

[3] = tested on: CTGF (connective tissue growth factor) gene expression; assay: Real time PCR of fibrosis marker gene CTGF in ventricular tissue, angiotensin II rat model; settings: corrected with GAPDH, Ang II + luteolin glycoside, FIG. 6
Experimental: as §2, §1, §3

[4] = tested on: ANP (atrial natriuretic peptide) gene expression; assay: Real time PCR of cardiomegaly/heart failure marker gene ANP in ventricular tissue, angiotensin II rat model; settings: corrected with GAPDH, Ang II + luteolin glycoside, FIG. 7
Experimental: as §2, §1, §3

[5] = tested on: BNP (brain natriuretic peptide) gene expression; assay: Real time PCR of cardiomegaly/heart failure marker gene BNP in ventricular tissue, angiotensin II rat model; settings: corrected with GAPDH, Ang II + luteolin glycoside, FIG. 7
Experimental: as §2, §1, §3

[6] = tested on: ApoE gene-deficient female mouse (ApoE−/−); assay: Acute aneurysm model by angiotensin II-continuous infusion in ApoE gene-deficient mouse
Description: Angiotensin II was continuously infused (for 16 weeks to 20 weeks) to a 12 week-old ApoE gene-deficient female mouse (ApoE−/−) (about 25 g of body weight) whereby to prepare an acute aneurysm model, and the action of luteolin glycoside (luteolin-7-O-glucoside was used) was investigated. For the control group (n=5), mice were normally raised (saline was continuously infused). For the angiotensin II group ([…]), an angiotensin II-continuous infusion pump was implanted subcutaneously in the mouse, and continuous infusion was performed for 4 weeks. For the luteolin glycoside simultaneous-administration group (Ang II+luteolin group), a luteolin glycoside-blended feed (0.055% of luteolin-7-O-glucoside was blended per feed) was fed for 3 weeks, then an angiotensin II-continuous infusion pump was implanted subcutaneously, and continuous infusion was performed for 4 weeks.
When the mouse was 20 weeks old, the blood pressure and body weight were measured, then the heart, the kidney and the aorta were removed, and generation of aneurysm was observed.

[7] = Plasma luteolin concentration after oral administration to rats; settings: male SD rat, 93 mg/kg PO; in comparison to luteolin (51 mg/kg PO) and luteolin-7-O-apiosyl glucoside (175 mg/kg PO), same aglycone amount; 0.5-8 hours; FIG. 12
Experimental: Luteolin (51 mg/kg, PO), luteolin-7-O-glucoside (93 mg/kg, PO) and luteolin-7-O-apiosyl glucoside (175 mg/kg, PO) were orally administered to rats (8 weeks old, male SD rat), the blood was collected just before the administration, and at 0.5 hours, 1 hour, 2 hours and 8 hours after the administration from the tail vein, and the plasma luteolin concentration was measured. Meanwhile, the doses of each of the luteolin and a glycoside thereof were the same in terms of the amount of luteolin that is an aglycone.

O=c1cc(-c2ccc(O)c(O)c2)oc2cc(O[C@@H]3O[C@H](CO)[C@@H](O)[C@H](O)[C@H]3O)cc(O)c12 [luteolin glycoside, luteolin-7-O-glucoside]
blood pressure increased by angiotensin II-continuous administration ([1]; LMG-blended feed (3.6 g per 10 kg feed) 3 weeks, then Ang II infusion 7 days, seventh day, FIG. 1): did not lower
fibrosis of the ventricular wall by angiotensin II ([1]; LMG-blended feed, Ang II 7 days, Masson's trichrome staining, FIG. 5): remarkably suppressed
ventricular wall thickening by angiotensin II administration ([1]; LMG-blended feed, Ang II 7 days, echocardiographic examination, FIG. 2): significantly suppressed
generation of reactive oxygen in the ventricular wall by angiotensin II ([1]; LMG-blended feed, Ang II 7 days, hydroethidine staining, FIG. 4): remarkably suppressed
gene expression of TGF-β1 in ventricular tissue [2]: suppression of the expression
gene expression of CTGF in ventricular tissue [3]: suppression of the expression
gene expression of ANP in ventricular tissue [4]: suppression of the expression
gene expression of BNP in ventricular tissue [5]: suppression of the expression
blood pressure ([6]; 0.055% luteolin-7-O-glucoside feed 3 weeks, then Ang II infusion 4 weeks, 20 weeks old, FIG. 8): not recognized
body weight ([6]; 0.055% luteolin-7-O-glucoside feed, Ang II 4 weeks, 20 weeks old, FIG. 8): not recognized
aneurysm formation (appearance) ([6]; 0.055% luteolin-7-O-glucoside feed, Ang II 4 weeks, FIG. 9): definitely suppressed
diameter of aneurysm ([6]; 0.055% luteolin-7-O-glucoside feed, Ang II 4 weeks, FIG. 10): decreased
rupture of the arterial wall elastic fiber ([6]; 0.055% luteolin-7-O-glucoside feed, Ang II 4 weeks, FIG. 11): suppressed
oral absorption (plasma luteolin concentration) [7]: remarkably higher
